Experimental data reported in patent US20100222875A1, “METHOD FOR FORMING A POROUS STENT COATING” (Abbott Cardiovascular Systems Inc., priority 2006, published 2010).

Experiment: in vitro drug release from a PBMA-coated stent
Format: physicochemical
Settings: over 24 hours, everolimus in PBMA drug coat, drug:polymer ratio 1 to 1.25, with 40-μg PBMA topcoat (0.3 micron coating thickness) on 18-mm medium stent
Excerpt: Of import to the present invention is that a polymer's mesh size can be altered by the formation of pores within the polymer itself. One means of accomplishing this is to add such a large concentration of drug to the polymer that the drug phase separates out. Thus, during stent synthesis, drug is released, thereby forming pores within the polymer. However, a topcoat is often added to control drug release and prevent an initial bolus or burst release of drug. Unfortunately, sometimes even the thinnest topcoat that can be applied leads to a drug release that is too slow to be therapeutically effective. One example is everolimus in a PBMA drug coat with a PBMA topcoat. For example, it has been shown that a thin 40-μg PBMA topcoat on an 18-mm medium stent, i.e., a 0.3 micron coating thickness, with a drug:polymer ratio of 1 to 1.25, gave only 7.1% drug release over 24 hours in an in vitro experiment.

SMILES: CO[C@H]1C[C@@H]2CC[C@@H](C)[C@@](O)(O2)C(=O)C(=O)N2CCCC[C@H]2C(=O)O[C@H]([C@H](C)C[C@@H]2CC[C@@H](OCCO)[C@H](OC)C2)CC(=O)[C@H](C)/C=C(\C)[C@@H](O)[C@@H](OC)C(=O)[C@H](C)C[C@H](C)/C=C/C=C/C=C/1C [everolimus]
- drug release: 7.1%
